In BindingDB's records for patent US20230312583 (Shengke Pharmaceuticals (Jiangsu), 2023):

Biological target: Mast/stem cell growth factor receptor Kit (Homo sapiens, UniProt P10721)
Assay: Biological Assay
Method: Reactions were carried out in the presence of 10 μM ATP. […] The radioactive phosphorylated substrate remaining on the filter paper was measured.

Chain of Mast/stem cell growth factor receptor Kit (P10721 whole entry): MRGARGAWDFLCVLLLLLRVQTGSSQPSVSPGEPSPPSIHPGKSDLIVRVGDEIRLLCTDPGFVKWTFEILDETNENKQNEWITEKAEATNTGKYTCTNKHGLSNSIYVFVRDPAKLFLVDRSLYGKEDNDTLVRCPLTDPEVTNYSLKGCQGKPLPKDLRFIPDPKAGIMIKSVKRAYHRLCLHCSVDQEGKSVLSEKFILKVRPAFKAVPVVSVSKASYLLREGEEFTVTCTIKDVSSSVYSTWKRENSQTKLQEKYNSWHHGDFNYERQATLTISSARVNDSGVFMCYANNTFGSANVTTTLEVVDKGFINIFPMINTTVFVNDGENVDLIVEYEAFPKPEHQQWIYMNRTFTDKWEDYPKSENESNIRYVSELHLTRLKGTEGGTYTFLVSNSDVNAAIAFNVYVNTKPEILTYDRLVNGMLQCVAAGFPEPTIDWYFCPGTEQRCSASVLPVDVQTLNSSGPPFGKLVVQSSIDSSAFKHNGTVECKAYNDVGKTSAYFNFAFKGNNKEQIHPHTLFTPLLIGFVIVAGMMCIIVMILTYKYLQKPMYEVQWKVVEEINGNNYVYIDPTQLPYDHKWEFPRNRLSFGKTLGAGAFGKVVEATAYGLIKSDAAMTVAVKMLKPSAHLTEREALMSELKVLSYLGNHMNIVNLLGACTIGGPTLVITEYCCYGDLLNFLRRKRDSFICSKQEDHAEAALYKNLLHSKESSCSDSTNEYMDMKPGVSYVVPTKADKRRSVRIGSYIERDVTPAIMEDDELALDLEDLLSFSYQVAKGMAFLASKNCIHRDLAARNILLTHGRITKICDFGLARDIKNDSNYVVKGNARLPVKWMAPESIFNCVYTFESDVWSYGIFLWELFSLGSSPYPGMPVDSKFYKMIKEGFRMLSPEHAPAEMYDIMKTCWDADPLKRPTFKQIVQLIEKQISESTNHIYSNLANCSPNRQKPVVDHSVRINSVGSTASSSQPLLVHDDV

Compound: CC#CCOc1cc(Nc2ncc3ccc4ncn(C(C)C)c4c3n2)ncc1N1CCNCC1 [US20230312583, Compound I-13]
- IC50: 93.2 nM
